In patent publication US6482819B1, “2,3-benzodiazepine derivatives” (Gyogyszerkutato Intezet Kft., priority 1997, dated 2002):

How the values were obtained:
CD 1 mice [1] = assay: Muscle relaxant activity, inclined screen test; type: in vivo; conditions: Mus musculus, ip
Description: (§1) The muscle relaxant activity of the compounds of general formula (I) was measured in the “inclined screen” test of Randall [J. Pharmacol. Exp. Ther. 129, 163 (1960)] and in the rotarod test [J. Am. Pharm. Assoc. 46, 208 (1975)]. The compounds were administered in 3 i. p. doses to ten CD 1 mice in each dose group.

CD 1 mice [2] = assay: Muscle relaxant activity, rotarod test; type: in vivo; conditions: Mus musculus, ip
Description: as §1

[3] = system: kainate (5 μM) induced spreading depression, isolated chicken retina; assay: Inhibition of kainate induced spreading depression in the isolated chicken retina preparation; type: cell-based; conditions: Gallus gallus
Description: (§2) In the first model the “spreading depression” inducing effect of glutamate agonists was studied, while in the second model the transmembrane ion current induced by the activation of glutamate receptors was directly measured.
(§3) Inhibition of AMPA and Kainate Induced “Spreading depression” in the Isolated Chicken Retina Preparation
(§4) The kainate and AMPA antagonizing effect was studied in vitro in the retinal “spreading depression” model [M. J. Sheardown: Brain Res. 607, 189 (1993)]. The AMPA/kainate antagonists extend the latency of the kainate (5 μM) or AMPA (5 μM) induced development of “spreading depression”.

[4] = system: AMPA (5 μM) induced spreading depression, isolated chicken retina; assay: Inhibition of AMPA induced spreading depression in the isolated chicken retina preparation; type: cell-based; conditions: Gallus gallus
Description: as §2, §3, §4

[5] = system: AMPA receptors (kainate induced current, Purkinje cells); assay: Inhibition of kainate induced whole cell currents on Purkinje cells of the cerebellum; type: cell-based; conditions: 100 μM kainate, read-out: IC50 against kainate, whole cell currents
Description: (§5) Inhibition of AMPA and Kainate Induced Transmembrane Currents
(§6) The effect of the compound of Example 17 on whole cell currents induced by 100 μM kainate or 5 μM AMPA, resp., was studied on Purkinje cells of the cerebellum according to the method of Bleakman et al. [Neuropharmacology 12, 1689 (1996)]. […] In this preparation kainate was also exerting its effect through the activation of AMPA receptors.

[6] = system: AMPA receptors (AMPA induced current, Purkinje cells); assay: Inhibition of AMPA induced whole cell currents on Purkinje cells of the cerebellum; type: cell-based
Description: as §5, §6

[7] = system: electroshock convulsions in mice; assay: Anticonvulsive effect, electroshock test; type: in vivo; conditions: Mus musculus, po, 60 minutes pretreatment
Description: (§7) In Table I the anticonvulsive effect of some compounds of the invention in the electroshock test is presented [J. Pharmacol. Exp. Ther. 106, 319 (1952)]. The anticonvulsive effect was also studied in convulsions induced by various chemical agents, e. g. pentetrazole [J. Pharmacol. Exp. Ther 108, 168 (1953)], strychnine [J. Pharmacol. Exp. Ther. 129, 75 (1960)], bemegride, nicotine, bicuculline, 4-aminopyridine and 3-mercaptopropionic acid. The pretreatment period was 60 minutes. The test compounds were administered orally in 3 doses to 10 male CD 1 mice in each dose group.

[8] = system: nicotine induced convulsions in mice; assay: Anticonvulsive effect, nicotine induced convulsions; type: in vivo; conditions: Mus musculus, po, 60 minutes pretreatment
Description: as §7

[9] = system: bicuculline induced convulsions in mice; assay: Anticonvulsive effect, bicuculline induced convulsions; type: in vivo; conditions: Mus musculus, po, 60 minutes pretreatment
Description: as §7

[10] = system: anesthesized rats, middle cerebral artery occlusion; assay: Inhibition of focal ischemia, middle cerebral artery occlusion (MCAO) test; type: in vivo; conditions: for Infarcted area in percent of cerebral hemosphere / Score of infarcted area (size of infarcted area) / Change % of size of infarcted area: MCAO; for Change % of size of infarcted area: versus vehicle
Description: The focal ischemia inhibiting effect of the compound of Example 17 was studied on the “middle cerebral artery occlusion” (MCAO) test in anesthesized rats. […] After histological processing the developed infarcted area was measured by a computerized scanner program [R. T. Bartus: Stroke 11, 2265 (1994) and S. G. Sydserff: Brit. J. Pharmacol. 114, 1631 (1995)].

[11] = system: pentetrazole induced convulsions in mice; assay: Anticonvulsive effect, pentetrazole induced convulsions; type: in vivo; conditions: Mus musculus, po, 60 minutes pretreatment
Description: as §7

[12] = system: bemegride induced convulsions in mice; assay: Anticonvulsive effect, bemegride induced convulsions; type: in vivo; conditions: Mus musculus, po, 60 minutes pretreatment
Description: as §7

| SMILES | ED50 (CD 1 mice [1]) [mg/kg] | ED50 (CD 1 mice [2]) [mg/kg] | IC50 [3] [µM] | IC50 [4] [µM] | IC50 [5] [µM] | IC50 ([6]; Purkinje cells of the cerebellum, 5 μM AMPA, read-out: IC50 against AMPA, whole cell currents) [µM] | Inhibition of ion current induced by AMPA receptor activation relative to GYKI 52466 ([6]; Purkinje cells, compared by IC50 values) | ED50 [7] [mg/kg] | ED50 [8] [mg/kg] | ED50 [9] [mg/kg] | Rate of cerebral cell damage induced by occlusion of the middle cerebral artery ([10]; 6×1 mg/kg i.v.) | Infarcted area in percent of cerebral hemosphere ([10]; 6 × 1 mg/kg i.v.) [%] | Score of infarcted area (size of infarcted area) ([10]; 6 × 1 mg/kg i.v.) | Change % of size of infarcted area ([10]; 6 × 1 mg/kg i.v.) [%] | Infarcted area in percent of cerebral hemosphere ([10]; 6 × 2 mg/kg i.v.) [%] | Score of infarcted area (size of infarcted area) ([10]; 6 × 2 mg/kg i.v.) | Change % of size of infarcted area ([10]; 6 × 2 mg/kg i.v.) [%] | melting point [°C] | ED50 [11] [mg/kg] | ED50 [12] [mg/kg] |
| --- | --- | --- | --- | --- | --- | --- | --- | --- | --- | --- | --- | --- | --- | --- | --- | --- | --- | --- | --- | --- |
| NCC(CC(=O)O)c1ccc(Cl)cc1 (stereo not drawn) [Baclofen, reference compound] | 26 | 13 |  |  |  |  |  |  |  |  |  |  |  |  |  |  |  |  |  |  |
| Cc1cn2c(n1)Cc1ccc(Cl)cc1C(c1ccc(N)cc1)=N2 [Example 17] | 36 | 16 | 2.5 | 7.3 | 4.97 | 2.02 | twice as strongly inhibited | 24 | 13 | 23 | significantly reduced | 13.4 ± 3.64 | 16122 ± 4368 | −60.2 | 11.0 ± 1.93 | 13229 ± 2313 | −67.4 | 229 to 230 |  |  |
| O=C1NC(=O)C(c2ccccc2)(c2ccccc2)N1 [Phenytoin, reference compound] |  |  |  |  |  |  |  | 10 | 12 |  |  |  |  |  |  |  |  |  | > 400 | > 200 |
